Assay results reported in US20100285959A1, “HERBICIDAL MIXTURES” (priority 2006, published 2010).

Key:
[1] = test system: corn (ZEAMD); test: Test 1 field trial, preemergence; format: in vivo, Zea mays ssp. indentata; settings: hybrid Pioneer 34N43, corn (Zea mays ssp. indentata), in vivo
From the text: (§1) Corn seeds (hybrid ‘Pioneer 34N43’) were planted in mid spring season, 3.8 cm deep in a silt loam soil having 4.6% organic matter and a pH of 6. Plots were 10.7 m long by 1.5 m wide with rows spaced 76 cm apart. Seeds were spaced 18 cm apart within the rows. The field was managed using conventional tillage practices. […] Results are summarized in Table 1 and are the means of the three replicates. […] Colby's Equation (Colby, S. R. “Calculating Synergistic and Antagonistic Responses of Herbicide Combinations,” Weeds, 15(1), pp 20-22 (1967)) calculates the expected additive effect of herbicidal mixtures, and for two active ingredients is of the form:
(§2) Pa+b=Pa+Pb−(PaPb/100) • wherein Pa+b is the percentage effect of the mixture expected from additive contribution of the individual components, • Pa is the observed percentage effect of the first active ingredient at the same use rate as in the mixture, and • Pb is the observed percentage effect of the second active ingredient at the same use rate as in the mixture.

[2] = test system: giant foxtail (SETFA); test: Test 1 field trial, preemergence; format: in vivo, Setaria faberi
From the text: as §1, §2

[3] = test system: corn (ZEAMD); test: Test 5 field trial, postemergence; format: in vivo, Zea mays ssp. indentata
From the text: (§3) Corn seeds (hybrid ‘Pioneer 38H69’) were planted in mid spring season, 5.1 cm deep in a silty clay loam soil having 3% organic matter and a pH of 6.5. Plots were 9.1 m long by 3.0 m wide with rows spaced 76 cm apart. The field was managed using conventional tillage practices. […] All treatments included a surfactant except glufosinate treatments, both alone and in combination. […] Results are summarized in Table 5 and are the means of the three replicates.

[4] = test system: common ragweed (AMBEL); test: Test 5 field trial, postemergence; format: in vivo, Ambrosia artemisiifolia
From the text: as §3

[5] = test system: common lambsquarters (CHEAL); test: Test 5 field trial, postemergence; format: in vivo, Chenopodium album
From the text: as §3

[6] = test system: yellow foxtail (SETLU); test: Test 5 field trial, postemergence; format: in vivo, Setaria glauca
From the text: as §3

[7] = test system: common lambsquarters (CHEAL); test: Test 6 field trial, postemergence; format: in vivo, Chenopodium album
From the text: (§4) Corn seeds (hybrid ‘Pioneer 35Y62’) were planted in mid spring season, 3.8 cm deep in a silt loam soil having 4% organic matter and a pH of 5.8. Plots were 10.7 m long by 1.5 m wide with rows spaced 76 cm apart. Seeds were spaced 18 cm apart within the rows. The field was managed using conventional tillage practices. […] All treatments included a surfactant except glufosinate treatments, both alone and in combination. […] Results are summarized in Table 6 and are the means of the three replicates.

[8] = test system: yellow foxtail (SETLU); test: Test 6 field trial, postemergence; format: in vivo, Setaria glauca
From the text: as §4

[9] = test system: corn (ZEAMD); test: Test 8 field trial, preemergence; format: in vivo, Zea mays ssp. indentata; settings: hybrid Pioneer 31G96, corn (Zea mays ssp. indentata), in vivo, 56 days after application
From the text: (§5) Corn seeds (hybrid ‘Pioneer 31G96’) were planted in mid spring season, 3.8 cm deep in a clay loam soil having 2% organic matter and a pH of 6.6. Plots were 6.1 m long by 3.0 m wide with rows spaced 76 cm apart. Seeds were spaced 15 cm apart within the rows. The field was managed using conventional tillage practices. […] A few of the weed species could not be evaluated at every timing. […] Results are the means of the three replicates.

[10] = test system: redroot pigweed (AMARE); test: Test 8 field trial, preemergence; format: in vivo, Amaranthus retroflexus; settings: 56 DAA
From the text: as §5

[11] = test system: jimsonweed (DATST); test: Test 8 field trial, preemergence; format: in vivo, Datura stramonium
From the text: as §5

[12] = test system: southern sandbur (CCHEC); test: Test 11 field trial, preemergence; format: in vivo, Cenchrus echinatus; design: scale not given here; settings: alone or + atrazine 1500 or metolachlor 2500
From the text: (§6) Corn seeds (hybrid ‘Pioneer 3041’) were planted in mid spring season, 5 cm deep in a clay soil having 2.6% organic matter and a pH of 5.6. Plots were 8 m long by 1.5 m wide with rows spaced 80 cm apart. Seeds were spaced 15 cm apart within the rows. The field was managed using conventional tillage practices. […] Treatments consisted of Compound 2 or
(§7) Goosegrass was not evaluated 16 or 91 days after application.

[13] = test system: tropical spiderwort (COMBE); test: Test 11 field trial, preemergence; format: in vivo, Commelina benghalensis; design: scale not given here; settings: alone or + atrazine 1500 or metolachlor 2500
From the text: as §6, §7

[14] = test system: Ipomoea grandiflora (IPOGF); test: Test 11 field trial, preemergence; format: in vivo
From the text: as §6, §7

[15] = 56 DAA, g a.i./ha: Cpd 2 50, S-Metolachlor 1870
[16] = 56 DAA, g a.i./ha: Cpd 2 100, Atrazine 1680, S-Metolachlor 1870
[17] = 56 DAA, g a.i./ha: Cpd 2 150, S-Metolachlor 1870
[18] = 16 DAA, Cpd 2 30 g a.i./ha alone or with glufosinate 470 or glyphosate 1120
[19] = 16 DAA, Cpd 2 60 g a.i./ha alone or with atrazine 1120, glufosinate 470 or glyphosate 1120
[20] = 31 DAA, Cpd 2 30 g a.i./ha alone or with glufosinate 470 or glyphosate 1120
[21] = 31 DAA, Cpd 2 60 g a.i./ha alone or with atrazine 1120, glufosinate 470 or glyphosate 1120
[22] = 16 DAA, Cpd 2/Cpd 1 at 62 g a.i./ha
[23] = 16 DAA, Cpd 2/Cpd 1 at 125 g a.i./ha
[24] = 30 DAA, Cpd 2/Cpd 1 at 62 g a.i./ha
[25] = 30 DAA, Cpd 2/Cpd 1 at 125 g a.i./ha
[26] = 44 DAA, Cpd 2/Cpd 1 at 62 g a.i./ha
[27] = 44 DAA, Cpd 2/Cpd 1 at 125 g a.i./ha
[28] = 62 DAA, Cpd 2/Cpd 1 at 62 g a.i./ha
[29] = 62 DAA, Cpd 2/Cpd 1 at 125 g a.i./ha
[30] = 91 DAA, Cpd 2/Cpd 1 at 62 g a.i./ha
[31] = 91 DAA, Cpd 2/Cpd 1 at 125 g a.i./ha
[32] = 16 DAA, atrazine 1120, glufosinate 470 or glyphosate 1120 g a.i./ha alone
[33] = 31 DAA, atrazine 1120, glufosinate 470 or glyphosate 1120 g a.i./ha alone

COC(=O)c1nc(C2CC2)nc(N)c1Cl [Compound 2, methyl 6-amino-5-chloro-2-cyclopropyl-4-pyrimidinecarboxylate]
ZEAMD Obs ([1]; 28 days after application): 0
ZEAMD Obs ([1]; 56 days after application): 0
SETFA Obs ([2]; 28 DAA, g a.i./ha: Cpd 2 50, S-Metolachlor 1870): 0
SETFA Obs ([2]; 28 DAA, g a.i./ha: Cpd 2 100, Atrazine 1680, S-Metolachlor 1870): 0
SETFA Obs ([2]; 28 DAA, g a.i./ha: Cpd 2 150, S-Metolachlor 1870): 0
SETFA Obs [2, 15]: 0
SETFA Obs [2, 16]: 0
SETFA Obs [2, 17]: 0
ZEAMD Obs ([3]; hybrid Pioneer 38H69, corn (Zea mays ssp. indentata), in vivo, 16 days after application): 0%
ZEAMD Obs ([3]; hybrid Pioneer 38H69, corn (Zea mays ssp. indentata), in vivo, 31 days after application): 0%
AMBEL Obs [4, 18]: 85%
AMBEL Obs [4, 19]: 95%
AMBEL Obs [4, 20]: 83%
AMBEL Obs [4, 21]: 99%
CHEAL Obs [5, 18]: 83%
CHEAL Obs [5, 19]: 87%
CHEAL Obs [5, 20]: 82%
CHEAL Obs [5, 21]: 99%
SETLU Obs [6, 18]: 2%
SETLU Obs [6, 19]: 0%
SETLU Obs [6, 20]: 0%
SETLU Obs [6, 21]: 2%
CHEAL Obs ([7]; 14 DAA, 30 g a.i./ha): 100%
CHEAL Obs ([7]; 14 DAA, 60 g a.i./ha): 100%
CHEAL Obs ([7]; 28 DAA, 30 g a.i./ha): 100%
CHEAL Obs ([7]; 28 DAA, 60 g a.i./ha): 100%
SETLU Obs ([8]; 14 DAA, 30 g a.i./ha): 0%
SETLU Obs ([8]; 14 DAA, 60 g a.i./ha): 0%
SETLU Obs ([8]; 28 DAA, 30 g a.i./ha): 0%
SETLU Obs ([8]; 28 DAA, 60 g a.i./ha): 0%
ZEAMD Obs [9]: 0%
AMARE Obs ([10]; g a.i./ha: Cpd 2 50, S-Metolachlor 1870): 45%
AMARE Obs ([10]; g a.i./ha: Cpd 2 100, Atrazine 1680, S-Metolachlor 1870): 100%
AMARE Obs ([10]; g a.i./ha: Cpd 2 150, S-Metolachlor 1870): 100%
DATST Obs ([11]; 19 DAA, g a.i./ha: Cpd 2 50, S-Metolachlor 1870): 33%
DATST Obs ([11]; 19 DAA, g a.i./ha: Cpd 2 100, Atrazine 1680, S-Metolachlor 1870): 52%
DATST Obs ([11]; 19 DAA, g a.i./ha: Cpd 2 150, S-Metolachlor 1870): 65%
DATST Obs ([11]; 29 DAA, g a.i./ha: Cpd 2 50, S-Metolachlor 1870): 45%
DATST Obs ([11]; 29 DAA, g a.i./ha: Cpd 2 100, Atrazine 1680, S-Metolachlor 1870): 63%
DATST Obs ([11]; 29 DAA, g a.i./ha: Cpd 2 150, S-Metolachlor 1870): 85%
DATST Obs [11, 15]: 65%
DATST Obs [11, 16]: 90%
DATST Obs [11, 17]: 100%
CCHEC Obs [12, 22]: 0
CCHEC Obs [12, 23]: 40
CCHEC Obs [12, 24]: 0
CCHEC Obs [12, 25]: 40
CCHEC Obs [12, 26]: 0
CCHEC Obs [12, 27]: 0
CCHEC Obs [12, 28]: 0
CCHEC Obs [12, 29]: 0
CCHEC Obs [12, 30]: 0
CCHEC Obs [12, 31]: 0
COMBE Obs [13, 22]: 40
COMBE Obs [13, 23]: 60
COMBE Obs [13, 24]: 40
COMBE Obs [13, 25]: 60
COMBE Obs [13, 26]: 40
COMBE Obs [13, 27]: 60
COMBE Obs [13, 28]: 0
COMBE Obs [13, 29]: 40
COMBE Obs [13, 30]: 0
COMBE Obs [13, 31]: 40
IPOGF Obs ([14]; 16 DAA, Cpd 2/Cpd 1 at 62 g a.i./ha, alone or + atrazine 1500 or metolachlor 2500): 0
IPOGF Obs ([14]; 16 DAA, Cpd 2/Cpd 1 at 125 g a.i./ha, alone or + atrazine 1500 or metolachlor 2500): 40
IPOGF Obs ([14]; 30 DAA, Cpd 2/Cpd 1 at 62 g a.i./ha, alone or + atrazine 1500 or metolachlor 2500): 40
IPOGF Obs ([14]; 30 DAA, Cpd 2/Cpd 1 at 125 g a.i./ha, alone or + atrazine 1500 or metolachlor 2500): 60
IPOGF Obs ([14]; 44 DAA, Cpd 2/Cpd 1 at 62 g a.i./ha, alone or + atrazine 1500 or metolachlor 2500): 0
IPOGF Obs ([14]; 44 DAA, Cpd 2/Cpd 1 at 125 g a.i./ha, alone or + atrazine 1500 or metolachlor 2500): 50
IPOGF Obs ([14]; 62 DAA, 62 g a.i./ha, scale 0 to 100): 0
IPOGF Obs ([14]; 62 DAA, 125 g a.i./ha, scale 0 to 100): 0
IPOGF Obs ([14]; 91 DAA, 62 g a.i./ha, scale 0 to 100): 0
IPOGF Obs ([14]; 91 DAA, 125 g a.i./ha, scale 0 to 100): 0

O=C(O)CNCP(=O)(O)O [Glyphosate]
ZEAMD Obs [3, 32]: 0%
ZEAMD Obs [3, 33]: 0%
AMBEL Obs [4, 32]: 84%
AMBEL Obs [4, 33]: 100%
CHEAL Obs [5, 32]: 100%
CHEAL Obs [5, 33]: 97%
SETLU Obs [6, 32]: 100%
SETLU Obs [6, 33]: 98%
CHEAL Obs ([7]; 14 DAA, 1120 g a.i./ha): 100%
CHEAL Obs ([7]; 28 DAA, 1120 g a.i./ha): 100%
SETLU Obs ([8]; 14 DAA, 1120 g a.i./ha): 97%
SETLU Obs ([8]; 28 DAA, 1120 g a.i./ha): 96%
